Literature values in patent publication US20180177735A1, “Stable Pharmaceutical Composition Of Phytonadione And A Novel Process For Preparation Thereof” (Amneal Pharmaceuticals Company GmbH, priority 2016, published 2018).
Like-named read-outs stand apart in the source and are kept apart here.

- solubility (in chloroform): soluble
- solubility (in water): insoluble
SMILES: CC1=C(C/C=C(\C)CCC[C@H](C)CCC[C@H](C)CCCC(C)C)C(=O)c2ccccc2C1=O [Phytonadione]
- solubility (in ethanol): slightly soluble (1 g of material requires 100 to 1000 ml of solute to dissolve)
